Results reported in patent US8173606B2, “Sulfated oligosaccharide derivatives” (Progen Pharmaceuticals Limited, priority 2004, dated 2012).

How the values were obtained:
FGF-1 = FGF-1 (Homo sapiens, UniProt P05230); experiment: SPR based solution affinity assay, growth factor binding (FGF-1); details: heparin-coated sensorchip, HBS-EP buffer, 25° C.; read-out: Kd aFGF
Experimental: (§1) Binding affinities of ligands for the growth factors FGF-1, FGF-2 and VEGF were measured using a surface plasmon resonance (SPR) based solution affinity assay. The principle of the assay is that heparin immobilised on a sensorchip surface distinguishes between free and bound growth factor in an equilibrated solution of the growth factor and a ligand. Upon injection of the solution, the free growth factor binds to the immobilised heparin, is detected as an increase in the SPR response and its concentration thus determined. A decrease in the free growth factor concentration as a function of the ligand concentration allows for the calculation of the dissociation constant, Kd. It is important to note that ligand binding to the growth factors can only be detected when the interaction involves the HS binding site, thus eliminating the chance of evaluating non-specific binding to other sites on the protein. A 1:1 stoichiometry has been assumed for all protein:ligand interactions.
(§2) For the testing of growth factor binding activity, heparin-coated sensorchips were used. Their preparation, via immobilisation of biotinylated BSA-heparin on a streptavidin-coated sensorchip, has been described.[5] Heparin has also been immobilised via aldehyde coupling using either adipic acid dihydrazide or 1,4-diaminobutane. […] Ligands binding to FGF-1 and VEGF were measured in HBS-EP buffer (10 mM HEPES, pH 7.4, 150 mM NaCl, 3.0 mM EDTA and 0.005% (v/v) polysorbate 20), while binding to FGF-2 was measured in HBS-EP buffer containing 0.3 M NaCl.[5] […] For each assay mixture, 50-200 μL of solution was injected at 5-40 μL/min and the relative binding response measured. […]
(§3) Sensorgram data were analysed using the BIAevaluation software (BIAcore). […]
(§4) [formula] and the binding equation[5] can be expressed as
(§5) The Kd values given are the values fit, using the binding equation, to a plot of [P] versus [L]total. Where Kd values were measured in duplicate, the values represent the average of the duplicate measurements. […]

FGF-2 = FGF-2 (Homo sapiens, UniProt P09038); experiment: SPR based solution affinity assay, growth factor binding (FGF-2); details: heparin-coated sensorchip, HBS-EP buffer containing 0.3 M NaCl, 25° C.; read-out: Kd bFGF
Sequence of FGF-2 (P09038 143-288, species assumed): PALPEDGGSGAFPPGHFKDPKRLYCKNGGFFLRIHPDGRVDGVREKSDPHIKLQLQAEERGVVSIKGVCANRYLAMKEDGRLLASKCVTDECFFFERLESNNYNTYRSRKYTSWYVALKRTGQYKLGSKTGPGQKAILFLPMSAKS
Experimental: as §1, §2, §3, §4, §5

Sequence of FGF-1 (P05230 whole entry, species assumed): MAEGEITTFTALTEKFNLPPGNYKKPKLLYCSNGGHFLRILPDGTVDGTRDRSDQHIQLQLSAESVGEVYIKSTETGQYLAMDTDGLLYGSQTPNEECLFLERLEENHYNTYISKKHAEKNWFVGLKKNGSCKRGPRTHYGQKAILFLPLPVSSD

Substance | Kd (FGF-1) [nM] | Kd (FGF-2) [nM]
Benzyl Glycoside Polysulfate [PG500] | 0.12 ± 0.025 | 86 ± 7
Octyl Glycoside Polysulfate [PG501] | 0.144 ± 0.008 | 68.3 ± 2.9
